# ChEMBL document CHEMBL4049445
# Legend:
# [1] = Antiviral activity against Influenza A virus A//HK/7/87 (H3N2) expressing wild-type M2 proton channel infected in MDCK cells assessed as reduction in viral yield after 24 hrs by RT-qPCR method; format: functional, Influenza A virus (A/Hong Kong/7/1987(H3N2))
# [2] = Antiviral activity against Influenza A virus A//HK/7/87 (H3N2) expressing wild-type M2 proton channel infected in MDCK cells assessed as reduction in plaque formation preincubated with virus for 1 hr followed by addition to cells measured after 72 hrs by crystal violet staining based assay; format: functional, cell-based, Influenza A virus (A/Hong Kong/7/1987(H3N2))
# [3] = (§1) Cytotoxicity against MDCK cells assessed as reduction in cell viability after 72 hrs by MTS assay; format: cell-based, Canis lupus familiaris; conditions: dog, MDCK cells
# [4] = system: MDCK; assay: as §1; format: cell-based, Canis lupus familiaris; conditions: dog, mdck, 72 h
# [5] = biological target: Matrix protein 2 (Influenza A virus (A/Udorn/307/1972(H3N2))) (UniProt P0DOF8); format: cell-based; conditions: Influenza A virus (A/udorn/1972(H3N2)); 100 uM
# [6] = biological target: Matrix protein 2 (Influenza A virus (A/Udorn/307/1972(H3N2))) (UniProt P0DOF8); format: cell-based; conditions: Influenza A virus (A/udorn/1972(H3N2)); 100 uM; remark: listed apart in the source
# [7] = Antiviral activity against Influenza A virus (A2 Japan/305/57) H2N2 infected in MDCK cells assessed as reduction of virus-induced cytopathic effect after 4 to 5 days by MTS assay; format: functional, cell-based, Influenza A virus (A/Japan/305/1957(H2N2))
# Sequence of Matrix protein 2 (Influenza A virus (A/Udorn/307/1972(H3N2))) (P0DOF8 whole entry): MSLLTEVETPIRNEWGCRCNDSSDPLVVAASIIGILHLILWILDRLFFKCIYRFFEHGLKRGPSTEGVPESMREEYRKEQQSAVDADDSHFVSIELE
Structure (SMILES),EC99 [1] [µM],EC50 [2] [µM],CC50 at 72 h [3] [µM],CC50 [4] [µM],inhibition [5] [%],inhibition [6] [%],EC50 [7] [µM]
C(=C1C2CC3CC(C2)CC1C3)C1CCNCC1,> 10,> 5,25,,,,
N=C(N)N1CCC(C23CC4CC(CC(C4)C2)C3)CC1,> 2,> 50,,10,,,
OC1(CC2CCNCC2)C2CC3CC(C2)CC1C3 (stereo not drawn),> 50,10,,> 50,,,
OC1(C2CCNCC2)C2CC3CC(C2)CC1C3 (stereo not drawn),76,> 100,,> 100,25,30,
N=C(N)N1CCC(C=C2C3CC4CC(C3)CC2C4)CC1,> 2,> 5,19,,,,
NC12CC3CC(CC(C3)C1)C2 [AMANTADINE],0.51,0.14,,,,,
N=C(N)N1CCC(CC2C3CC4CC(C3)CC2C4)CC1 (stereo not drawn),> 2,> 10,,3.8,,,
CCN1CCC(C2C3CC4CC(C3)CC2C4)CC1 (stereo not drawn),> 10,> 10,,25,,,
C1CC(C23CC4CC(CC(C4)C2)C3)CCN1,≥ 1.7,0.14,,18,,,
C1CC(CC2C3CC4CC(C3)CC2C4)CCN1 (stereo not drawn),> 2,> 10,,15,,,
CC(N)C12CC3CC(CC(C3)C1)C2 (stereo not drawn) [RIMANTADINE],1.1,0.016,,> 500,,,
C1CCC(C23CC4CC(CC(C4)C2)C3)NC1 (stereo not drawn),3.5,1,,> 100,,,3.3
CN1CCC(CC2C3CC4CC(C3)CC2C4)CC1 (stereo not drawn),> 2,> 10,,6.2,,,
C1CC(C2C3CC4CC(C3)CC2C4)CCN1 (stereo not drawn),≥ 50,,,> 100,,,
